Experimental data as given in patent US5278143A, “Prophylactic and therapeutic methods for treating interleukin-mediated edemas” (Trustees of Boston University, priority 1991, dated 1994).
Residues, ends and D or L forms follow the SMILES beside them.

Columns and labels:
IL-2 induced edema [1] = assay: IL-2 induced vascular leak syndrome, organ wet to dry (W/D) weight ratios; type: in vivo, rats; settings: for Lung wet to dry weight ratio, effect of agent on IL-2 edema: agent 1 uM co-treatment with 10^6 U/ml IL-2, p<0.05, FIG. 5; for Heart wet to dry weight ratio, effect of agent on IL-2 edema: agent 1 uM co-treatment with 10^6 U/mml IL-2, p<0.01, FIG. 4; for Kidney wet to dry ratio, effect of agent on IL-2 edema: agent 1 uM plus 10^6 U/ml IL-2, FIG. 2; for Liver wet to dry ratio, effect of agent with IL-2: agent 1 uM plus IL-2 co-treatment, FIG. 3; for Spleen wet to dry ratio, effect of agent with IL-2: agent plus 10^6 U/ml IL-2, FIG. 1
Experimental: (§1) 1. Assay Models: Vascular leak syndrome is induced rapidly in adult, male rats (500 g) by a continuous infusion for 1 h of 10^6 units of IL-2 (n=36). Five hours later the animals are killed and edema is quantitated by measuring wet to dry (W/D) ratios for the lungs, kidneys, liver, heart, and spleen.
(§2) 2. Controls: Animals are pretreated with 0.5 ml saline for 30 min. prior to the IL-2 infusion (n=28).
(§3) 3. Experimental Animals: Each animal is pretreated with either Phallin A (antamanide) or Phallin B (phalloidin), 20 ug/0.5 ml saline as a single bolus 30 min. prior to the infusion of IL-2 (n=24). Each animal then receives at 30 min. intervals a booster injection of 20 ug of Phallin A or Phallin B for the duration (6 h) of the experiments.

IL-2 induced edema [2] = assay: IL-2 induced vascular leak syndrome, protein concentration of bronchoalveolar lavage fluid; type: in vivo, rats; settings: agent 1 uM and 10^6 U/ml Interleukin-2, compared with 10^6 U/ml Interleukin-2 alone, FIG. 6
Experimental: as §1, §2, §3
4. Protein Analysis: Samples obtained by bronchoalveolar lavage are quantitated for protein concentration as another means of determining the relative loss of barrier integrity in the experimental animals compared to controls.

albino mice = settings: intramuscularly; cited from earlier work
mice or rats = settings: high dose levels, intramuscularly; cited from earlier work
IL-2 induced edema [3] = assay: IL-2 induced vascular leak syndrome, organ wet to dry (W/D) weight ratios; type: in vivo, rats; settings: for Spleen wet to dry ratio (splenic edema) / Kidney wet to dry ratio (renal edema) / Liver wet to dry ratio (hepatic edema) / Heart wet to dry weight ratio (cardiac edema) / Lung wet to dry weight ratio (pulmonary edema): agent alone, 1 uM; for Spleen wet to dry ratio (splenic edema): FIG. 1; for Kidney wet to dry ratio (renal edema): FIG. 2; for Liver wet to dry ratio (hepatic edema): FIG. 3; for Heart wet to dry weight ratio (cardiac edema): FIG. 4; for Lung wet to dry weight ratio (pulmonary edema): FIG. 5
phalloidin poisoning = settings: cited from earlier work

| Compound | Lung wet to dry weight ratio, effect of agent on IL-2 edema (IL-2 induced edema [1]) | Heart wet to dry weight ratio, effect of agent on IL-2 edema (IL-2 induced edema [1]) | Kidney wet to dry ratio, effect of agent on IL-2 edema (IL-2 induced edema [1]) | Liver wet to dry ratio, effect of agent with IL-2 (IL-2 induced edema [1]) | Spleen wet to dry ratio, effect of agent with IL-2 (IL-2 induced edema [1]) | Protein concentration in bronchoalveolar lavage fluid (IL-2 induced edema [2]) | Spleen wet to dry ratio (splenic edema) (IL-2 induced edema [3]) | Kidney wet to dry ratio (renal edema) (IL-2 induced edema [3]) | Liver wet to dry ratio (hepatic edema) (IL-2 induced edema [3]) | Heart wet to dry weight ratio (cardiac edema) (IL-2 induced edema [3]) | Lung wet to dry weight ratio (pulmonary edema) (IL-2 induced edema [3]) | other results |
| --- | --- | --- | --- | --- | --- | --- | --- | --- | --- | --- | --- | --- |
| Phalloidin | significantly reduced | significantly reduced | significantly (p<0.05) worsened | produced significant (p<0.05) edema | remained unmodified | drastically reduced the accumulation and concentration of protein | did not produce any significant splenic edema | did not produce any significant renal edema | did not produce any significant hepatic edema | did not produce any significant cardiac edema | did not produce any significant pulmonary edema | Lung wet to dry weight ratio, effect of agent on IL-2 edema (IL-2 induced edema [1]; listed as Phallin B): decreases IL-2 induced edema; Heart wet to dry weight ratio, effect of agent on IL-2 edema (IL-2 induced edema [1]; listed as Phallin B): decreases IL-2 induced edema; Kidney wet to dry ratio, effect of agent on IL-2 edema (IL-2 induced edema [1]; listed as Phallin B): apparently produces edema; Liver wet to dry ratio, effect of agent with IL-2 (IL-2 induced edema [1]; listed as Phallin B): apparently produces edema; LD50 dose (albino mice): 3.3 micrograms per gram of body weight; time to death (mice or rats): death of mice or rats within one or two hours |
| CC(C)[C@@H]1NC(=O)[C@H](Cc2ccccc2)NC(=O)[C@H](Cc2ccccc2)NC(=O)[C@@H]2CCCN2C(=O)[C@@H]2CCCN2C(=O)[C@H](Cc2ccccc2)NC(=O)[C@H](Cc2ccccc2)NC(=O)[C@H](C)NC(=O)[C@@H]2CCCN2C(=O)[C@@H]2CCCN2C1=O [antamanide] (cyclo(AFFPPFFVPP)) | significantly reduced | significantly reduced | signnificantly improved (p<0.05) | No significant change in wet/dry weight ratio | remained unmodified | drastically reduced the accumulation and concentration of protein | did not produce any significant splenic edema | did not produce any significant renal edema | did not produce any significant hepatic edema | did not produce any significant cardiac edema | did not produce any significant pulmonary edema | Lung wet to dry weight ratio, effect of agent on IL-2 edema (IL-2 induced edema [1]; listed as Phallin A): prevented IL-2 induced edema; Heart wet to dry weight ratio, effect of agent on IL-2 edema (IL-2 induced edema [1]; listed as Phallin A): prevented IL-2 induced edema; Kidney wet to dry ratio, effect of agent on IL-2 edema (IL-2 induced edema [1]; listed as Phallin A): prevented IL-2 induced edema; Liver wet to dry ratio, effect of agent with IL-2 (IL-2 induced edema [1]; listed as Phallin A): appear unaffected; toxicity of the substance itself (phalloidin poisoning; in vivo): completely non-toxic of itself; effect on toxic effects of fatal doses of phalloidin (phalloidin poisoning; therapeutic doses): capable of actually annulling the toxic effects of fatal doses of phalloidin; Spleen wet to dry ratio, effect of agent with IL-2 (IL-2 induced edema [3]; agent plus 10^6 U/ml IL-2, FIG. 1, listed as Phallin A): appear unaffected |
